Laboratory results as given in article PMC6359543, “Efficacy of Azatyrosine-Phenylbutyric Hydroxamides, a Histone Deacetylase Inhibitor, on Chemotherapy-Induced Gastrointestinal Mucositis” (International Journal of Molecular Sciences, 2019).
Read-outs that look alike come from different tables or passages of the source.

How the values were obtained:
HDAC1 = target: T1, HDAC1 (Homo sapiens, UniProt Q13547); experiment: HDAC fluorometric activity assay, HDAC1; format: biochemical
T1 construct: purchased Enzo Life Sciences, Farmingdale, NY, USA
T1 sequence (Q13547 whole entry, species assumed): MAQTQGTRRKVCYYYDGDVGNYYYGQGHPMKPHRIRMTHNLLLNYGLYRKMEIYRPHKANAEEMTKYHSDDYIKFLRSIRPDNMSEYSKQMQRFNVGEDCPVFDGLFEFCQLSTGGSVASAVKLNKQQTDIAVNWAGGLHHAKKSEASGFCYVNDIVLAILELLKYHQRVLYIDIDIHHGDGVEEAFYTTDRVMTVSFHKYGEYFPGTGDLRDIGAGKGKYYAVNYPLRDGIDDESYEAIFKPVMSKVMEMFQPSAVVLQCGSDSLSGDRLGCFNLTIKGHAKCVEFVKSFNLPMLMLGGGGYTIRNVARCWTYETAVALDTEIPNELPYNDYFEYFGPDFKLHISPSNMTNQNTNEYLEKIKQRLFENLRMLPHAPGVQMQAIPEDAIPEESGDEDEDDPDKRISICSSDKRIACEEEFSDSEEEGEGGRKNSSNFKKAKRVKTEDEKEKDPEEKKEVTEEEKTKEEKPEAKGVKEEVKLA
Experimental: (§1) Pan HDAC enzyme (all the known class I HDACs-HDAC1, HDAC2, HDAC3, HDAC8 and class II HDACs 4-7, 9 and 10), HDAC subtype 1, 3 and 4 activity were determined by using the HDAC fluorometric cellular activity assay (Enzo Life Sciences, Farmingdale, NY, USA) according to the manufacturer’s protocol. […] Percent activity for each of the test compounds is calculated as follows:
(§2) Activity = {(Sc − B)/(S° − B)} × 100. […] IC50 was then calculated and represented as mean ± SD.

HDAC3 = target: T2, HDAC3 (Homo sapiens, UniProt O15379); experiment: HDAC fluorometric activity assay, HDAC3; format: biochemical
T2 construct: purchased Enzo Life Sciences, Farmingdale, NY, USA
T2 sequence (O15379 whole entry, species assumed): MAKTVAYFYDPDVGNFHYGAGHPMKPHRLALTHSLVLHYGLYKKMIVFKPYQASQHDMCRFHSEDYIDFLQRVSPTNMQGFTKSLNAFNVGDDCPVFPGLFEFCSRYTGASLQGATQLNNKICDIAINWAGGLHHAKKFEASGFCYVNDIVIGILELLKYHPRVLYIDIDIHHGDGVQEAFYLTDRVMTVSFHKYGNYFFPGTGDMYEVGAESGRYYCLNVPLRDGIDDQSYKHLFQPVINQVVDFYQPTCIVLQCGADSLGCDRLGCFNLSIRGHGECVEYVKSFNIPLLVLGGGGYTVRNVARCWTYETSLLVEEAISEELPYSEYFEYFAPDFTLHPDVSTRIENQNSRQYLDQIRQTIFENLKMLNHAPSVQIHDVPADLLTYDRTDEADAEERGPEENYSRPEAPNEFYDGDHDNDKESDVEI
T2 sequence (O75376 395-489 partner limits assumed, species assumed): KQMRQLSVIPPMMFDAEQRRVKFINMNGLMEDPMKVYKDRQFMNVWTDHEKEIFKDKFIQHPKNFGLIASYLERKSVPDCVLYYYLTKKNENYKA
Experimental: as §1, §2

HDAC4 = target: T3, HDAC4 (Homo sapiens, UniProt P56524); experiment: HDAC fluorometric activity assay, HDAC4; format: biochemical
T3 construct: purchased Enzo Life Sciences, Farmingdale, NY, USA
T3 sequence (P56524 whole entry, species assumed): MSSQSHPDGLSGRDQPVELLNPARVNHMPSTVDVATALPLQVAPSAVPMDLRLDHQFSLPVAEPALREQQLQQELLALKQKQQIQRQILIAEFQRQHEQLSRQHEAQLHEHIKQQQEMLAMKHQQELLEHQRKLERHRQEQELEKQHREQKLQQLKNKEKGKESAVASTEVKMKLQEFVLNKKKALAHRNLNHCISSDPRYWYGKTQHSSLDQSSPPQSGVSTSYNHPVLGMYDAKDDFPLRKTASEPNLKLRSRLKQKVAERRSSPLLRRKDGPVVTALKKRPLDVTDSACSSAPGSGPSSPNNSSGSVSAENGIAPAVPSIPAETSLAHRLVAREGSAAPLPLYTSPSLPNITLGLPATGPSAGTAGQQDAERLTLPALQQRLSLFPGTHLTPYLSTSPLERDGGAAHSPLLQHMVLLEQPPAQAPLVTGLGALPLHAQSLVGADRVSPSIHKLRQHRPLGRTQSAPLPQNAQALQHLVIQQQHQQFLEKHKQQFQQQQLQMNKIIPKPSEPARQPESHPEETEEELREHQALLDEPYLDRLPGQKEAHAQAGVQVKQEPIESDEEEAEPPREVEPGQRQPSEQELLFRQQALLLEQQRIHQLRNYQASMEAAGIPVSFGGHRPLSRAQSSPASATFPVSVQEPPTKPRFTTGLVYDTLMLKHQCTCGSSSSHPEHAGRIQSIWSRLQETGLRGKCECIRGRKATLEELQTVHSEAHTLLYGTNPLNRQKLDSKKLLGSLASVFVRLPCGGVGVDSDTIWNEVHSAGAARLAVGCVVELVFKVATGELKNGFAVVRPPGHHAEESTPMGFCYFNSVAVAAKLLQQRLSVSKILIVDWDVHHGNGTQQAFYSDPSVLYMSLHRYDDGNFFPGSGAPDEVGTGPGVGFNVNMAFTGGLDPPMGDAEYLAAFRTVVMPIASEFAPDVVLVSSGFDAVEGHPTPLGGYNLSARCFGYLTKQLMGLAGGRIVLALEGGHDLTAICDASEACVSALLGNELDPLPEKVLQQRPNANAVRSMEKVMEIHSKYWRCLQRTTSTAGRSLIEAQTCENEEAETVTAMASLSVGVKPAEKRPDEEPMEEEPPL
Experimental: as §1, §2

IEC-6 cells = experiment: LPS-induced inflammatory protein expression in IEC-6 cells (Western blot); format: cell-based, Rat; details: LPS 500 ng/mL 8 h, AzP 1–20 μM
Experimental: Figure 5 Hierarchical clustering and KEGG analyses of gene profiles of the AzP-manipulated IEC-6 cells. (A) Two independent experiments were performed, samples were named C1, C2 as control group (1% dimethyl sulfoxide (DMSO)); LPS1, LPS2 as lipopolysaccharide (LPS) 500 ng/mL group; LPS + AzP1, LPS + AzP2 as LPS 500 ng/mL and AzP 20 μM group. Heat maps showing the clustering analysis of the IEC-6 cells with different treatments (1% DMSO, LPS 500 ng/mL and/or AzP 20 μM) indicates up-regulation (red), down-regulation (green), and mean gene expression (black). […] IEC-6 cells were treated with LPS 500 ng/mL for 8 h and/or AzP 1–20 μM, Western blot performed and immunoblotted with several inflammatory protein expressions including MMP-9 (C), IL-1β (D), iNOS (E), and IL-6 (F). Density was measured and calculated. ### p < 0.001 as compared with the control, ## p < 0.01 as compared with the control, # p < 0.05 as compared with the control, * p < 0.05 as compared with the LPS-treated group, ** p < 0.01 as compared with the LPS-treated group and *** p < 0.001 as compared with LPS-treated group.
IEC-6 cells were incubated in different AzP concentrations with/without LPS stimulation for 24 h. The homogenate from cells or tissues was then centrifuged at 14,000× g for 10 min at 4 °C and the supernatant was collected. Protein separation was performed using 10% reducing SDS-PAGE, electrotransferred onto polyvinylidene difluoride (PVDF), and immunoblotted with antibodies against inflammatory proteins as well as β-actin as control. Densitometry was performed using BioLight software V2000.01 (Uhldingen-Mühlhofen, Germany). The optical density of specific protein was normalized to an internal control and expressed as a ratio to control.

[1] = tested on: Salmonella typhimurium TA98; experiment: Salmonella/microsome reversion assay (Ames test), TA98; format: cell-based
[2] = tested on: Salmonella typhimurium TA102
Experimental: Five strains of Salmonella typhimurium, TA98, TA102, TA100, TA1537, and TA1535, were obtained from Moltox (Boone, NC, USA). Mutagenicity was evaluated by the incorporation method in the presence or absence of S9 metabolic activation. A volume of 100 µL of each test bacterial culture (10^9 cells/mL), 2 mL soft agar (0.6% agar, 0.5% NaCl, 5 mM histidine, and […], pH 7.4, 40–50 °C), 0.5 mL S9 mixture (if necessary), and AzP were mixed well in a test tube. […] The revertant colonies were counted, and a positive mutagenic response was identified when (i) the number of revertants was at least double the spontaneous yield; (ii) a statistical significance (p ≤ 0.05) was found; and (iii) a reproducible positive dose response was present.

[3] = tested on: Salmonella typhimurium TA1535; format: cell-based
male ICR mice = experiment: Micronucleus test; details: mouse, in vivo
Experimental: Male ICR mice (n = 5) were administered AzP orally by gavage, at doses of 5, 50, and 500 mg/kg body weight. […] At 24, 48, and 72 h after dosing, 2-μL blood samples were collected from the tail vein onto a slide stained with acridine orange (40 μg/mL). The ratio (%) of polychromatic erythrocytes (PCEs) to total erythrocytes was determined using fluorescence microscopy. In addition, the frequency of micronucleated polychromatic erythrocytes (MNPCEs; ‰) was counted to a total of 1000 erythrocytes or PCEs per animal.

With CC(C)(C)OC(=O)NC(Cc1ccc(OCc2ccccc2)cn1)C(=O)Nc1ccc(CCCC(=O)NO)cc1 (centres unmarked) [AzP, Azatyrosine-phenylbutyric hydroxamides] the IC50 (HDAC1) was 3440 ± 680 nM, the IC50 (HDAC3) was 660 ± 99 nM and the IC50 (HDAC4) was 1970 ± 110 nM. For the same molecule, the “LPS-induced IL-1β protein expression” value (IEC-6 cells) was “concentration-dependently inhibited”, the “LPS-induced IL-6 protein expression” value (IEC-6 cells) was “concentration-dependently inhibited” and the “LPS-induced MMP9 protein expression” value (IEC-6 cells) was “concentration-dependently inhibited”. For the same molecule, the “protein expression of iNOS” value (IEC-6 cells) was “unaffected”, the “Ames test result, TA98 (-S9)” value ([1]; -S9) was “Negative” and the “Revertant colonies per plate (+S9) TA98” value ([1]; AzP 0.00245 mg/plate) was 59.7±3.8. The “Revertant colonies per plate (-S9) TA98” value ([1]; AzP 0.00245 mg/plate) was 42±4.6, the “Revertant colonies per plate (+S9) TA98” value ([1]; AzP 0.0049 mg/plate) was 58.3±4.7 and the “Revertant colonies per plate (-S9) TA98” value ([1]; AzP 0.0049 mg/plate) was 29±5.7. For the same molecule, the “Revertant colonies per plate (+S9) TA98” value ([1]; AzP 0.0098 mg/plate) was 56.3±3.4, the “Revertant colonies per plate (-S9) TA98” value ([1]; AzP 0.0098 mg/plate) was 24±5.4 and the “Revertant colonies per plate (+S9) TA98” value ([1]; AzP 0.0195 mg/plate) was 59.7±0.7. The “Revertant colonies per plate (-S9) TA98” value ([1]; AzP 0.0195 mg/plate) was 33.7±3, the “Revertant colonies per plate (+S9) TA98” value ([1]; AzP 0.0391 mg/plate) was 62.7±2.3 and the “Revertant colonies per plate (-S9) TA98” value ([1]; AzP 0.0391 mg/plate) was 33.7±2.8. The “Revertant colonies per plate (+S9) TA98” value ([1]; AzP 0.0781 mg/plate) was 56.3±2.2, the “Revertant colonies per plate (+S9) TA98” value ([1]; AzP 0.156 mg/plate) was 61±1.2 and the “Revertant colonies per plate (+S9) TA98” value ([1]; AzP 0.3125 mg/plate) was 69.7±5.8. For the same molecule, the “Revertant colonies per plate (+S9) TA98” value ([1]; AzP 0.625 mg/plate) was 64±2.9, the “Ames test result, TA98 (|S9)” value ([1]; second S9 group) was “Negative” and the “Ames test result, TA102 (-S9)” value ([2]; -S9) was “Negative”. The “Revertant colonies per plate (+S9) TA102” value ([2]; AzP 0.00245 mg/plate) was 219.7±6.9, the “Revertant colonies per plate (-S9) TA102” value ([2]; AzP 0.00245 mg/plate) was 141±4.4 and the “Revertant colonies per plate (+S9) TA102” value ([2]; AzP 0.0049 mg/plate) was 225.7±4.5. For the same molecule, the “Revertant colonies per plate (-S9) TA102” value ([2]; AzP 0.0049 mg/plate) was 142.3±4.7, the “Revertant colonies per plate (+S9) TA102” value ([2]; AzP 0.0098 mg/plate) was 215±4 and the “Revertant colonies per plate (-S9) TA102” value ([2]; AzP 0.0098 mg/plate) was 140.3±7.9. For the same molecule, the “Revertant colonies per plate (+S9) TA102” value ([2]; AzP 0.0195 mg/plate) was 230.7±2, the “Revertant colonies per plate (-S9) TA102” value ([2]; AzP 0.0195 mg/plate) was 139.5±5.6 and the “Revertant colonies per plate (+S9) TA102” value ([2]; AzP 0.0391 mg/plate) was 212.2±9.2. For the same molecule, the “Revertant colonies per plate (-S9) TA102” value ([2]; AzP 0.0391 mg/plate) was 138.3±8.5, the “Revertant colonies per plate (+S9) TA102” value ([2]; AzP 0.0781 mg/plate) was 233.3±9.8 and the “Revertant colonies per plate (-S9) TA102” value ([2]; AzP 0.0781 mg/plate) was 152.7±11.3. The “Revertant colonies per plate (+S9) TA102” value ([2]; AzP 0.156 mg/plate) was 217.3±4.8, the “Revertant colonies per plate (+S9) TA102” value ([2]; AzP 0.3125 mg/plate) was 230.1±8.4 and the “Revertant colonies per plate (+S9) TA102” value ([2]; AzP 0.625 mg/plate) was 217.4±7.3. The “Ames test result, TA102 (|S9)” value ([2]; second S9 group) was “Negative”, the “Ames test result, TA1535 (-S9)” value ([3]; -S9) was “Negative” and the “Revertant colonies per plate (-S9) TA1535” value ([3]; AzP 0.0195 mg/plate) was 52±1.2. For the same molecule, the “Revertant colonies per plate (+S9) TA1535” value ([3]; AzP 0.0391 mg/plate) was 46.5±3.3, the “Revertant colonies per plate (-S9) TA1535” value ([3]; AzP 0.0391 mg/plate) was 47.3±9 and the “Revertant colonies per plate (+S9) TA1535” value ([3]; AzP 0.0781 mg/plate) was 50.5±4.9. The “Revertant colonies per plate (-S9) TA1535” value ([3]; AzP 0.0781 mg/plate) was 59±0.6, the “Revertant colonies per plate (+S9) TA1535” value ([3]; AzP 0.156 mg/plate) was 52.5±5.2 and the “Revertant colonies per plate (-S9) TA1535” value ([3]; AzP 0.156 mg/plate) was 61.3±2.2. The “Revertant colonies per plate (+S9) TA1535” value ([3]; AzP 0.3125 mg/plate) was 51.7±3.6, the “Revertant colonies per plate (-S9) TA1535” value ([3]; AzP 0.3125 mg/plate) was 54.6±7.2 and the “Revertant colonies per plate (+S9) TA1535” value ([3]; AzP 0.625 mg/plate) was 59.2±3.3. For the same molecule, the “Revertant colonies per plate (-S9) TA1535” value ([3]; AzP 0.625 mg/plate) was 52.2±13.4, the “Revertant colonies per plate (+S9) TA1535” value ([3]; AzP 1.25 mg/plate) was 67±3.2 and the “Revertant colonies per plate (+S9) TA1535” value ([3]; AzP 2.5 mg/plate) was 58±2.1. The “Ames test result, TA1535 (|S9)” value ([3]; second S9 group) was “Negative” and the “Micronucleus Test result” value (male ICR mice) was “Negative”.
